The text below walks through data of PubChem BioAssay (NCI).

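Values below derive from 48-hour exposures of cells grown in 96-well plates, with endpoints linearly interpolated between the two concentrations bracketing the appropriate inhibition level. Abbreviation: GI50, concentration required for 50% inhibition of growth. TGI marks complete inhibition of growth.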

Among the test systems are BT-549 breast; SR leukemia; 786-0 renal; CCRF-CEM leukemia; HCT-15 colon; SK-MEL-5 melanoma; SNB-75 CNS; A549 NSCLC; T-47D breast; OVCAR-3 ovarian.
Assay in all cases: NCI-60 cell line screen, 48 h

As to `O=c1cccc(C#CC#CC2=CCCCC2)o1`, the GI50 was 2.57 µM with BT-549 breast; 0.0307 µM with SR leukemia; 1.59 µM with 786-0 renal; 0.649 µM with CCRF-CEM leukemia; 2.76 µM with HCT-15 colon; 3.3 µM in the assay with SK-MEL-5 melanoma. Also, the GI50 with SNB-75 CNS is 7.1 µM; in the assay on A549 NSCLC, 10.1 µM; in the assay with T-47D breast, 2.73 µM; in the assay on OVCAR-3 ovarian, 6.66 µM. Also, the TGI worked out at 23.4 µM in the assay on SR leukemia; 4.35 µM in the assay on 786-0 renal; 5.5 µM in the assay with CCRF-CEM leukemia; 10.9 µM with HCT-15 colon; 8.89 µM in the assay on SK-MEL-5 melanoma; 36.8 µM with SNB-75 CNS. In addition, the TGI was above 47.7 µM with A549 NSCLC, 14.8 µM in the assay with T-47D breast and 10.4 µM with OVCAR-3 ovarian.
